Source: patent publication US20260257987A1, “COMPOUNDS AND METHOD FOR UPREGULATION OF P53 THROUGH INDUCTION OF MDM2 DEGRADATION” (Georgia State University Research Foundation, Inc., priority 2022, published 2026)
“Also recorded” adds a separate entry of the source. Read-outs that look alike come from different tables or passages of the source. One block for each compound: values may come before it.

Assays:
EU-1 cells = assay: Cytotoxicity test (CCK-8 cell viability) in EU-1 cells; assay type: cell-based; details: for IC50: read-out: IC50 (μM) in EU-1 cells; for fold more potent than BW-AQ-238: compared to BW-AQ-238
Method: (§1) Cell viability was assessed by using Cell Counting Kit-8 (CCK-8, Dojindo, Japan). EU-1 and RS4;11 cells were cultured in RPMI-1640 medium (Corning, USA); MCF7 and HEK-293 cells were cultured in MEM (Corning, USA); and HeLa and H9c2 cells were cultured in high glucose DMEM (Corning, USA). All the culture mediums were supplemented with 10% fetal bovine serum (Corning, USA) and 100 unit/ml penicillin, and […] streptomycin. For cytotoxicity assays, cells were seeded into 96-well plates at a density of 3× 10^5 cells per well (50 μL). Compounds were dissolved in DMSO (molecular biology grade, Sigma-Aldrich, USA) to make 10 mM stock solutions, which were serially diluted with the culture medium to various concentrations (final DMSO concentration=0.5%). A culture medium (50 μL) containing the anthraquinone analog was added directly to the cell suspension in each well immediately after seeding. After incubation for 24 h at 37° C. in a humidified atmosphere with 5% CO2, 10 μL of CCK-8 solution was added to each well, and the plate was incubated for an additional 2-4 h at 37° C. before measuring the optical density at 450 nm with a microplate reader (PerkinElmer Victor 2, USA). The cell viability of each well was calculated as the percentage of the untreated control according to the manufacturer's manual. All tests were performed in triplicates, and IC50 values were determined with six concentrations by non-linear regression using GraphPad Prism 9.

[1] = Thiol (NAC) reactivity study by HPLC; assay type: physicochemical; details: for order of reactivity with NAC (pseudo-first-order kinetics): 0.3 mM analog, 1.5 mM NAC
Method: HPLC was performed on Shimadzu LC-20AT HPLC system. Condition: mobile phase A: water with 0.05% TFA; B: acetonitrile with 0.05% TFA; gradient: 5-95% B, 0-10 min; […]; 5% B 12.1-15 min. Column: C18, 3.5 μm, 4.6×150 mm; UV detector monitored at 254 nm. For the thiol reactivity assay, a 0.3 mM solution of AQ-analogs was prepared in 0.5 mL PBS: MeOH (80:20) and warmed at 37° C. Next, 25 μL of NAC (from 30 mM stock solution in PBS) was added to the above solution. The resultant solution had final concentrations of 0.3 mM AQ-analogs and 1.5 mM NAC. 20 μL of the reaction mixture was injected into the HPLC at the designated time intervals. The area percentage values were determined via the integration of the area under the curve (AUC) of the chromatogram.

[2] = test system: RS4;11 cells (wild-type p53); assay: Cytotoxicity test of BW-AQ-365 (CCK-8) in RS4;11 cells; assay type: cell-based; details: Homo sapiens; RS4; 11, 25000 cells/well, 48 h, positive control
Method: Cell viability was assessed by using Cell Counting Kit-8 (CCK-8, Dojindo, Japan). RS4;11 cells (wild-type p53) were cultured in RPMI-1640 medium (Corning, USA). The culture mediums were supplemented with 10% fetal bovine serum (Corning, USA) and 100 unit/ml penicillin, and […] streptomycin. […] Compounds were dissolved in DMSO (molecular biology grade, Sigma-Aldrich, USA) to make 10 mM stock solutions, which were serially diluted with the culture medium to various concentrations (final DMSO concentration=0.5%). A culture medium (50 μL) containing BW-AQ-365 was added directly to the cell suspension in each well immediately after seeding. After incubation for 24-72 h at 37° C. in a humidified atmosphere with 5% CO2, 10 μL of CCK-8 solution was added to each well, and the plate was incubated for an additional 2-4 h at 37° C. before measuring the optical density at 450 nm with a microplate reader (PerkinElmer Victor 2, USA). The cell viability of each well was calculated as the percentage of the untreated control according to the manufacturer's manual. All tests were performed in triplicates, and IC50 values were determined by non-linear regression using GraphPad Prism 9.0.

HeLa cells = assay: Cytotoxicity test (CCK-8) in HeLa cells; assay type: cell-based; details: for IC50: Homo sapiens, HeLa cells
Method: as §1

H9c2 cells = assay: Cytotoxicity test (CCK-8) in H9c2 cells; assay type: cell-based; details: Rattus norvegicus
Method: as §1, with “A culture medium (50 μL) containing the anthraquinone analog was added directly to the cell suspension in each well immediately after seeding.” left out

RS4;11 cells = assay: Cytotoxicity test (CCK-8) in RS4;11 cells; assay type: cell-based; details: Homo sapiens
Method: as §1, with “A culture medium (50 μL) containing the anthraquinone analog was added directly to the cell suspension in each well immediately after seeding.” left out

HEK-293 cells = assay: Cytotoxicity test (CCK-8) in HEK-293 cells; assay type: cell-based; details: Homo sapiens, HEK293
Method: as §1, with “A culture medium (50 μL) containing the anthraquinone analog was added directly to the cell suspension in each well immediately after seeding.” left out

MCF7 cells = assay: Cytotoxicity test (CCK-8) in MCF7 cells; assay type: cell-based; details: Homo sapiens
Method: as §1, with “A culture medium (50 μL) containing the anthraquinone analog was added directly to the cell suspension in each well immediately after seeding.” left out

[3] = test system: MDM2 and p53 in EU-1 leukemia cells; assay: Western blot of MDM2 and p53 in EU-1 leukemia cells; assay type: cell-based; details: EU-1 cells; for MDM2 and p53 level by Western blot, dose and time dependence: GAPDH loading control
Method: Western Blot 5×10^6 cells were seeded in a 6-well plate and incubated for 12 h before the drug-loaded medium was added. The cells were harvested at designated time points, washed with cold PBS, and centrifuged at 1500 rpm×3 min. Then the cells were lysed by adding 100 μL of cold NP-40 buffer (supplied with complete™ protease Inhibitor tablet (Roche, USA)) and 1 mM PMSF (Thermo-Fisher, USA) on ice for 30 min. The cell lysates were centrifuged at 12500×g at 4° C. for 10 min, and the total protein concentration in the supernatant was measured with the BCA assay (Thermo-Fisher, USA). 30 μL of the cell lysate was mixed with 10 μL 4×Laemmli sample buffer and denatured at 95° C. for 5 min. The total protein concentration was adjusted with 1×Laemmli sample buffer. Equal amounts of protein sample were loaded onto a 4-15% gradient SDS-PAGE gel (Bio-rad, USA). After electrophoresis, the protein was transferred to the […] membrane (Bio-rad, USA) with the Trans-Blot Turbo system (Bio-rad, USA). The target protein was probed with the corresponding antibody using iBind Western Systems (Thermo-Fisher, USA), according to the manufacturer's manual. Antibody and dilution profile: MDM2 ((SMP14), 1:500 Santa Cruz, USA); p53 ((DO-1), 1:800, Santa Cruz, USA); GAPDH ((0411), 1:2000, Santa Cruz, USA) and HRP conjugated goat anti-mouse secondary antibody (1:2000, Bio-rad, USA). After incubation with Pierce ECL Plus Substrate (Thermo Scientific), chemiluminescent was detected and imaged with LSA^4000 (GE Healthcare, Fairfield, USA).

EU-1 ALL cells = details: background; cited from earlier work
[4] = EU-1 cells, 24 h incubation, CCK-8
[5] = EU-1 cells, compared to BW-AQ-295

SMILES: CC(=O)CCCOc1cccc2c1C(=O)c1c(OCCCC(C)=O)cc(NC(C)=O)cc1C2=O [BW-AQ-349, N-(9,10-dioxo-4,5-bis ((4-oxopentyl)oxy)-9,10-dihydroanthracen-2-yl)acetamide]
IC50 (EU-1 cells; EU-1, 24 h): > 100 µM | cytotoxicity in EU-1 cells, in words (EU-1 cells; EU-1 cells): lack of activity | stability in presence of NAC ([1]; 37° C. in PBS, HPLC): remained unchanged during the study duration (>400 min) | order of reactivity with NAC (pseudo-first-order kinetics) ([1]; 37° C. in PBS, HPLC): BW-AQ-350 >BW-AQ-353 >BW-AQ-295 ~ BW-AQ-354 >>BW-AQ-349

SMILES: CC(=O)CCCCOc1cccc2c1C(=O)c1c(OCCCCC(C)=O)cc(NC(=O)CCl)cc1C2=O [BW-AQ-345, 2-chloro-N-(9,10-dioxo-4,5-bis ((5-oxohexyl)oxy)-9,10-dihydroanthracen-2-yl)acetamide]
IC50 (EU-1 cells; EU-1, 24 h): 0.79 ± 0.03 µM

SMILES: COc1cccc2c1C(=O)c1c(O)c3c(c(O)c1C2=O)C[C@@](O)(C(=O)CO)C[C@@H]3O[C@H]1C[C@H](N)[C@H](O)[C@H](C)O1 [Doxorubicin, reference compound]
IC50 (EU-1 cells; [4]): 0.15 ± 0.02 µM | IC50 [2]: 53.1 ± 6.1 nM

SMILES: C#CC(=O)Nc1cc(OCCCC(C)=O)c2c(c1)C(=O)c1cccc(OCCCC(C)=O)c1C2=O [BW-AQ-350, N-(9,10-dioxo-4,5-bis ((4-oxopentyl)oxy)-9,10-dihydroanthracen-2-yl) propiolamide]
IC50 (HeLa cells): 4670 ± 250 nM | IC50 (EU-1 cells; [4]): 0.19 µM | fold increase in potency compared to BW-AQ-295 (EU-1 cells; [5]): 2 fold | IC50 (H9c2 cells): ~300 nM | reactivity towards thiol, in words [1]: high reactivity towards nucleophile such as thiol and amino acid | order of reactivity with NAC (pseudo-first-order kinetics) ([1]; 37° C. in PBS, HPLC): BW-AQ-350 >BW-AQ-353 >BW-AQ-295 ~ BW-AQ-354 >>BW-AQ-349 | IC50 (RS4;11 cells): 520 ± 70 nM | IC50 (HEK-293 cells): 2350 ± 690 nM | IC50 (MCF7 cells): 4930 ± 450 nM | MDM2 and p53 level by Western blot, dose and time dependence [3]: induced decrease in MDM2 levels in a dose- and time-dependent fashion; also recorded: downregulate MDM2 and upregulate p53 in EU-1 cells in a time- and dose-dependent fashion; also recorded: downregulation of MDM2 and upregulation p53

reactivity towards thiol, in words [1]: reacts with thiol species
SMILES: CC(=O)CCCOc1cccc2c1C(=O)c1c(OCCCC(C)=O)cc(NC(=O)CCl)cc1C2=O [BW-AQ-295, 2-chloro-N-(9,10-dioxo-4,5-bis ((4-oxopentyl)oxy)-9,10-dihydroanthracen-2-yl)acetamide]
fold less potency in HeLa cells compared to MCF7 cells (HeLa cells; HeLa vs MCF7): over 2 fold | IC50 (HeLa cells): 2310 ± 80 nM | IC50 (EU-1 cells; [4]): 0.43 ± 0.06 µM | fold more potent than BW-AQ-238 (EU-1 cells; EU-1 cells): about 3 fold | IC50 (H9c2 cells): 1120 ± 200 nM | order of reactivity with NAC (pseudo-first-order kinetics) ([1]; 37° C. in PBS, HPLC): BW-AQ-350 >BW-AQ-353 >BW-AQ-295 ~ BW-AQ-354 >>BW-AQ-349 | IC50 (RS4;11 cells): 690 ± 100 nM | IC50 (HEK-293 cells): 1160 ± 340 nM | IC50 (MCF7 cells): 950 ± 170 nM | MDM2 and p53 level by Western blot, time course ([3]; 0.8 μM): decreased MDM2 and increased p53 level were observed from the 4-h time point | MDM2 level by Western blot ([3]; 2 μM, 6 h): decreased MDM2 to an almost undetectable level | MDM2 and p53 level by Western blot, dose and time dependence [3]: decrease MDM2 level and increase p53 level in a dose- and time-dependent manner; also recorded: downregulate MDM2 and upregulate p53 in EU-1 cells in a time- and dose-dependent fashion; also recorded: downregulation of MDM2 and upregulation p53

SMILES: O=C(CCl)Nc1cc(OCCO)c2c(c1)C(=O)c1cccc(OCCO)c1C2=O [BW-AQ-238, reference compound]
IC50 (EU-1 cells; [4]): 0.74 ± 0.12 µM

SMILES: CC(=O)CCCOc1cc(NC(=O)CCl)cc2c1C(=O)c1c(O)cccc1C2=O [BW-AQ-336, 2-chloro-N-(5-hydroxy-9,10-dioxo-4-((4-oxopentyl)oxy)-9,10-dihydroanthracen-2-yl)acetamide]
IC50 (EU-1 cells; [4]): 0.84 ± 0.02 µM | fold decrease in potency / less potent compared to BW-AQ-295 (EU-1 cells; [5]): about 2 fold

SMILES: C#CC(N)=O [Propiolamide, reference compound]
IC50 (EU-1 cells; [4]): 33.5 ± 7.8 µM

SMILES: CC(=O)CCOc1cccc2c1C(=O)c1c(OCCC(C)=O)cc(NC(=O)CCl)cc1C2=O [BW-AQ-260, 2-chloro-N-(9,10-dioxo-4,5-bis(3-oxobutoxy)-9,10-dihydroanthracen-2-yl)acetamide]
IC50 (EU-1 cells; [4]): 0.45 µM | fold more potent than BW-AQ-238 (EU-1 cells; EU-1 cells): about 3 fold

SMILES: C=CS(=O)(=O)Nc1cc(OCCCC(C)=O)c2c(c1)C(=O)c1cccc(OCCCC(C)=O)c1C2=O [BW-AQ-354, N-(9,10-dioxo-4,5-bis ((4-oxopentyl)oxy)-9,10-dihydroanthracen-2-yl) ethenesulfonamide]
cytotoxicity in EU-1 cells, in words (EU-1 cells; EU-1 cells): more potent than BW-AQ-353 | IC50 (EU-1 cells; [4]): 3.45 ± 0.45 µM | order of reactivity with NAC (pseudo-first-order kinetics) ([1]; 37° C. in PBS, HPLC): BW-AQ-350 >BW-AQ-353 >BW-AQ-295 ~ BW-AQ-354 >>BW-AQ-349

SMILES: C=CC(=O)Nc1cc(OCCCC(C)=O)c2c(c1)C(=O)c1cccc(OCCCC(C)=O)c1C2=O [BW-AQ-353, N-(9,10-dioxo-4,5-bis ((4-oxopentyl)oxy)-9,10-dihydroanthracen-2-yl) acrylamide]
IC50 (EU-1 cells; [4]): 6.21 ± 0.45 µM | fold decrease in potency / less potent compared to BW-AQ-295 (EU-1 cells; [5]): about 15 fold | order of reactivity with NAC (pseudo-first-order kinetics) ([1]; 37° C. in PBS, HPLC): BW-AQ-350 >BW-AQ-353 >BW-AQ-295 ~ BW-AQ-354 >>BW-AQ-349

SMILES: O=C(CCl)Nc1cc(O)c2c(c1)C(=O)c1cccc(O)c1C2=O [BW-AQ-101, 2-chloro-N-(4,5-dihydroxy-9,10-dioxo-9,10-dihydroanthracen-2-yl)acetamide]
IC50 (EU-1 ALL cells): ~800 nM
